Literature values as cited in patent US11123293B2, “Liposomal formulation for joint lubrication” (MOEBIUS MEDICAL LTD., priority 2017, dated 2021).
Where “and” joins values, the source holds several entries; their conditions need not be identical. Equal values may be shown once. Read-outs that look alike come from different tables or passages of the source.

Legend:
[1] = pure phospholipid, literature value
joints of OA patients = details: injection into joints of OA patients, without major side effects
rabbit's knee = details: solution, intra-articular injection into a rabbit's knee

SMILES	Tm [1]	also measured
CCCCCCCCCCCCC/C=C/[C@@H](O)[C@H](COP(=O)([O-])OCC[N+](C)(C)C)NC(=O)CCCCCCCCCCCCCCC [D-erythro C16, N-palmitoyl-D-erythro-sphingosylphosphorylcholine]	41.0 °C	Tm ([1]; listed as N-palmitoyl SM): 41 °C
CCCCCCCCCCCCCCCCCC(=O)OC[C@H](COP(=O)([O-])OCC[N+](C)(C)C)OC(=O)CCCCCCCCCCCCCCCCC [DSPC, 1,2-distearoyl-sn-glycero-3-phosphocholine]	55 °C	–
OCC(O)CO [glycerol]	–	prevention of joint irritation (rabbit's knee): did not prevent irritation
OC[C@@H](O)[C@@H](O)[C@H](O)[C@H](O)CO [mannitol]	–	prevention of joint irritation (rabbit's knee): did not prevent irritation

Further lines, with some results ahead:

Tm [1]	SMILES	also measured
33.0 °C	CCCCCCCCCCCCCCC(=O)OC[C@H](COP(=O)([O-])OCC[N+](C)(C)C)OC(=O)CCCCCCCCCCCCCC [1,2-dipentadecanoyl-sn-glycero-3-phosphocholine]	–
23 °C and ~24 °C	CCCCCCCCCCCCCC(=O)OC[C@H](COP(=O)([O-])OCC[N+](C)(C)C)OC(=O)CCCCCCCCCCCCC [DMPC, 1,2-dimyristoyl-sn-glycero-3-phosphocholine]	–
23 °C	CCCCCCCCCCCCCC(=O)OC[C@H](COP(=O)(O)OCC(O)CO)OC(=O)CCCCCCCCCCCCC (some centres unmarked) [DMPG, 1,2-dimyristoyl-sn-glycero-3-phosphorylglycerol]	–
41 °C and 41.4 °C	CCCCCCCCCCCCCCCC(=O)OC[C@H](COP(=O)([O-])OCC[N+](C)(C)C)OC(=O)CCCCCCCCCCCCCCC [DPPC, 1,2-dipalmitoyl-sn-glycero-3-phosphocholine]	mobility improvement lasting (joints of OA patients): up to 14 weeks
41 °C	CCCCCCCCCCCCCCCC(=O)OC[C@H](COP(=O)(O)OCC(O)CO)OC(=O)CCCCCCCCCCCCCCC (some centres unmarked) [DPPG, 1,2-dipalmitoyl-sn-glycero-3-phosphorylglycerol]	–
